Results from ChEMBL document CHEMBL1687752, “Impact of antifungal prophylaxis on colonization and azole susceptibility of Candida species” (2009).
≈ marks a conversion by molar mass, not a printed value.

How the values were obtained:
Assay type in all cases: functional
Pichia kudriavzevii [1] = experiment: Antifungal activity against 14 days cultured Candida krusei isolated from neutropenic subject with AML or MDS pharynx after 12 days of prophylaxis by broth microdilution method
Candida tropicalis [2] = experiment: Antifungal activity against 9 days cultured Candida tropicalis isolated from neutropenic subject with AML or MDS stool receiving antifungal therapy for 45 days after 24 days of prophylaxis by broth microdilution method
Nakaseomyces glabratus [3] = experiment: Antifungal activity against 29 days cultured Candida glabrata isolated from neutropenic subject with AML or MDS pharynx after 48 days of prophylaxis by broth microdilution method
Nakaseomyces glabratus [4] = experiment: Antifungal activity against Candida glabrata isolated from neutropenic subjects with AML or MDS prior to initiation of posaconazole therapy by broth microdilution method
Nakaseomyces glabratus [5] = experiment: Antifungal activity against 25 days cultured Candida glabrata isolated from invasive fungal infected subject blood receiving antifungal therapy for 25 days after 3 days of prophylaxis by broth microdilution method
Nakaseomyces glabratus [6] = experiment: Antifungal activity against Candida glabrata isolated from HSCT recipient 186 with acute or chronic GVHD mouth receiving antifungal drug after 112 days prophylaxis by broth microdilution method
Nakaseomyces glabratus [7] = experiment: Antifungal activity against Candida glabrata isolated from HSCT recipient 491 with acute or chronic GVHD mouth receiving antifungal drug after 112 days prophylaxis by broth microdilution method
Nakaseomyces glabratus [8] = experiment: Antifungal activity against 31 days cultured Candida glabrata isolated from HSCT recipient with acute or chronic GVHD mouth receiving antifungal therapy for 31 days after 28 days of prophylaxis by broth microdilution method
Candida albicans [9] = experiment: Antifungal activity against Candida albicans isolated from neutropenic subjects with AML or MDS prior to initiation of posaconazole therapy by broth microdilution method
Candida albicans [10] = experiment: Antifungal activity against Candida albicans isolated from neutropenic subjects with AML or MDS receiving posaconazole by broth microdilution method
Nakaseomyces glabratus [11] = experiment: Antifungal activity against Candida glabrata isolated from HSCT recipient 497 with acute or chronic GVHD mouth receiving antifungal drug after 114 days prophylaxis by broth microdilution method
Candida albicans [12] = experiment: Antifungal activity against Candida albicans isolated from HSCT recipients with acute or chronic GVHD receiving posaconazole assessed as maximum MIC by broth microdilution method
Candida albicans [13] = experiment: Antifungal activity against Candida albicans isolated from neutropenic subjects with AML or MDS prior to initiation of fluconazole therapy assessed as maximum MIC by broth microdilution method
Nakaseomyces glabratus [14] = experiment: Antifungal activity against 88 days cultured Candida glabrata isolated from HSCT recipient with acute or chronic GVHD mouth receiving antifungal therapy for 75 days after 33 days of prophylaxis by broth microdilution method
Nakaseomyces glabratus [15] = experiment: Antifungal activity against Candida glabrata isolated from HSCT recipients with acute or chronic GVHD prior to initiation of posaconazole therapy assessed as maximum MIC by broth microdilution method
Nakaseomyces glabratus [16] = experiment: Antifungal activity against Candida glabrata isolated from HSCT recipient 807 with acute or chronic GVHD mouth receiving antifungal drug after 114 days prophylaxis by broth microdilution method
Nakaseomyces glabratus [17] = experiment: Antifungal activity against 60 days cultured Candida glabrata isolated from HSCT recipient with acute or chronic GVHD mouth receiving antifungal therapy for 75 days after 33 days of prophylaxis by broth microdilution method
Nakaseomyces glabratus [18] = experiment: Antifungal activity against Candida glabrata isolated from neutropenic subject 1497 with AML or MDS pharynx after 61 days prophylaxis by broth microdilution method
Nakaseomyces glabratus [19] = experiment: Antifungal activity against 7 days cultured Candida glabrata isolated from neutropenic subject with AML or MDS stool receiving antifungal therapy for 37 days after 9 days of prophylaxis by broth microdilution method
Candida tropicalis [20] = experiment: Antifungal activity against 2 days cultured Candida tropicalis isolated from neutropenic subject with AML or MDS pharynx receiving antifungal therapy for 45 days after 24 days of prophylaxis by broth microdilution method
Nakaseomyces glabratus [21] = experiment: Antifungal activity against Candida glabrata isolated from HSCT recipients with acute or chronic GVHD receiving fluconazole by broth microdilution method
Candida albicans [22] = experiment: Antifungal activity against Candida albicans isolated from HSCT recipient 301 with acute or chronic GVHD mouth receiving antifungal drug after 114 days prophylaxis by broth microdilution method
Nakaseomyces glabratus [23] = experiment: Antifungal activity against 10 days cultured Candida glabrata isolated from neutropenic subject with AML or MDS stool receiving antifungal therapy for 37 days after 9 days of prophylaxis by broth microdilution method
Candida albicans [24] = experiment: Antifungal activity against Candida albicans isolated from neutropenic subjects with AML or MDS prior to initiation of fluconazole therapy by broth microdilution method
Nakaseomyces glabratus [25] = experiment: Antifungal activity against 15 days cultured Candida glabrata isolated from HSCT recipient with acute or chronic GVHD mouth receiving antifungal therapy for 168 days after 113 days of prophylaxis by broth microdilution method
Candida albicans [26] = experiment: Antifungal activity against Candida albicans isolated from HSCT recipients with acute or chronic GVHD prior to initiation of fluconazole therapy by broth microdilution method
Candida albicans [27] = experiment: Antifungal activity against Candida albicans isolated from HSCT recipient 042 with acute or chronic GVHD mouth after 112 days prophylaxis by broth microdilution method
Nakaseomyces glabratus [28] = experiment: Antifungal activity against Candida glabrata isolated from neutropenic subjects with AML or MDS receiving fluconazole assessed as maximum MIC by broth microdilution method
Nakaseomyces glabratus [29] = experiment: Antifungal activity against Candida glabrata isolated from neutropenic subjects with AML or MDS prior to initiation of posaconazole therapy assessed as maximum MIC by broth microdilution method
Nakaseomyces glabratus [30] = experiment: Antifungal activity against Candida glabrata isolated from neutropenic subject 1187 with AML or MDS stool receiving antifungal drug after 22 days prophylaxis by broth microdilution method; conditions: 528 h
Nakaseomyces glabratus [31] = experiment: Antifungal activity against Candida glabrata isolated from HSCT recipients with acute or chronic GVHD receiving posaconazole assessed as maximum MIC by broth microdilution method
Nakaseomyces glabratus [32] = experiment: Antifungal activity against Candida glabrata isolated from HSCT recipients with acute or chronic GVHD prior to initiation of fluconazole therapy assessed as maximum MIC by broth microdilution method
Candida albicans [33] = experiment: Antifungal activity against Candida albicans isolated from HSCT recipient 262 with acute or chronic GVHD mouth receiving antifungal drug after 115 days prophylaxis by broth microdilution method
Pichia kudriavzevii [34] = experiment: Antifungal activity against Candida krusei isolated from HSCT recipients with acute or chronic GVHD prior to initiation of fluconazole therapy assessed as maximum MIC by broth microdilution method
Nakaseomyces glabratus [35] = experiment: Antifungal activity against 16 days cultured Candida glabrata isolated from HSCT recipient with acute or chronic GVHD mouth receiving antifungal therapy for 31 days after 28 days of prophylaxis by broth microdilution method
Nakaseomyces glabratus [36] = experiment: Antifungal activity against Candida glabrata isolated from neutropenic subject 1497 with AML or MDS pharynx receiving antifungal drug after 61 days prophylaxis by broth microdilution method
Nakaseomyces glabratus [37] = experiment: Antifungal activity against 42 days cultured Candida glabrata isolated from neutropenic subject with AML or MDS stool after 48 days of prophylaxis by broth microdilution method
Nakaseomyces glabratus [38] = experiment: Antifungal activity against 56 days cultured Candida glabrata isolated from HSCT recipient with acute or chronic GVHD mouth receiving antifungal therapy for 172 days after 114 days of prophylaxis by broth microdilution method

## CC[C@@H]([C@H](C)O)n1ncn(-c2ccc(N3CCN(c4ccc(OC[C@@H]5CO[C@@](Cn6cncn6)(c6ccc(F)cc6F)C5)cc4)CC3)cc2)c1=O [POSACONAZOLE]
Pichia kudriavzevii [1]
  MIC: 0.125 µg/mL (≈ 0.178 µM)
Candida tropicalis [2]
  MIC: < 0.015 µg/mL
Nakaseomyces glabratus [3]
  MIC: 8 µg/mL (≈ 11.4 µM)
Nakaseomyces glabratus [4]
  MIC50: 0.25 µg/mL (≈ 0.357 µM)
  MIC90: 2 µg/mL (≈ 2.85 µM)
Nakaseomyces glabratus [5]
  MIC: 0.5 µg/mL (≈ 0.713 µM)
Nakaseomyces glabratus [6]
  MIC: 2 µg/mL (≈ 2.85 µM)
Nakaseomyces glabratus [7]
  MIC: 2 µg/mL (≈ 2.85 µM)
Nakaseomyces glabratus [8]
  MIC: < 0.5 µg/mL
Candida albicans [9]
  MIC50: 0.015 µg/mL (≈ 0.0214 µM)
  MIC90: 0.015 µg/mL (≈ 0.0214 µM)
Candida albicans [10]
  MIC50: 0.015 µg/mL (≈ 0.0214 µM)
  MIC90: 0.015 µg/mL (≈ 0.0214 µM)
Nakaseomyces glabratus [11]
  MIC: 2 µg/mL (≈ 2.85 µM)
Candida albicans [12]
  MIC: 0.25 µg/mL
Candida albicans [13]
  MIC: 0.06 µg/mL
Nakaseomyces glabratus [14]
  MIC: 2 µg/mL (≈ 2.85 µM)
Nakaseomyces glabratus [15]
  MIC: 8 µg/mL
Nakaseomyces glabratus [16]
  MIC: > 8 µg/mL
Nakaseomyces glabratus [17]
  MIC: 4 µg/mL (≈ 5.71 µM)
Nakaseomyces glabratus [18]
  MIC: 0.03 µg/mL (≈ 0.0428 µM)
Nakaseomyces glabratus [19]
  MIC: 1 µg/mL (≈ 1.43 µM)
Candida tropicalis [20]
  MIC: < 0.015 µg/mL
Nakaseomyces glabratus [21]
  MIC50: 2 µg/mL (≈ 2.85 µM)
  MIC90: 8 µg/mL (≈ 11.4 µM)
Candida albicans [22]
  MIC: 0.03 µg/mL (≈ 0.0428 µM)
Nakaseomyces glabratus [23]
  MIC: 1 µg/mL (≈ 1.43 µM)
Candida albicans [24]
  MIC50: 0.015 µg/mL (≈ 0.0214 µM)
  MIC90: 0.015 µg/mL (≈ 0.0214 µM)
Nakaseomyces glabratus [25]
  MIC: 2 µg/mL (≈ 2.85 µM)
Candida albicans [26]
  MIC50: 0.016 µg/mL (≈ 0.0228 µM)
  MIC90: 0.03 µg/mL (≈ 0.0428 µM)
Candida albicans [27]
  MIC: < 0.015 µg/mL
Nakaseomyces glabratus [28]
  MIC: 2 µg/mL
Nakaseomyces glabratus [29]
  MIC: 4 µg/mL
Nakaseomyces glabratus [30]
  MIC: 4 µg/mL (≈ 5.71 µM)
Nakaseomyces glabratus [31]
  MIC: 8 µg/mL
Nakaseomyces glabratus [32]
  MIC: 16 µg/mL
Candida albicans [33]
  MIC: < 0.015 µg/mL
Pichia kudriavzevii [34]
  MIC: 0.5 µg/mL
Nakaseomyces glabratus [35]
  MIC: < 0.5 µg/mL
Nakaseomyces glabratus [36]
  MIC: 4 µg/mL (≈ 5.71 µM)
Nakaseomyces glabratus [37]
  MIC: 1 µg/mL (≈ 1.43 µM)
Nakaseomyces glabratus [38]
  MIC: 0.25 µg/mL (≈ 0.357 µM)

## CCC(C)n1ncn(-c2ccc(N3CCN(c4ccc(OCC5COC(Cn6cncn6)(c6ccc(Cl)cc6Cl)O5)cc4)CC3)cc2)c1=O (stereo not drawn) [ITRACONAZOLE]
Pichia kudriavzevii [1]
  MIC: 0.25 µg/mL (≈ 0.354 µM)
Candida tropicalis [2]
  MIC: 0.03 µg/mL (≈ 0.0425 µM)
Nakaseomyces glabratus [3]
  MIC: 8 µg/mL (≈ 11.3 µM)
Nakaseomyces glabratus [4]
  MIC50: 0.25 µg/mL (≈ 0.354 µM)
  MIC90: 8 µg/mL (≈ 11.3 µM)
Nakaseomyces glabratus [5]
  MIC: 2 µg/mL (≈ 2.83 µM)
Nakaseomyces glabratus [6]
  MIC: 2 µg/mL (≈ 2.83 µM)
Nakaseomyces glabratus [7]
  MIC: 2 µg/mL (≈ 2.83 µM)
Nakaseomyces glabratus [8]
  MIC: < 1 µg/mL
Candida albicans [9]
  MIC50: 0.015 µg/mL (≈ 0.0213 µM)
  MIC90: 0.03 µg/mL (≈ 0.0425 µM)
Candida albicans [10]
  MIC50: 0.015 µg/mL (≈ 0.0213 µM)
  MIC90: 0.03 µg/mL (≈ 0.0425 µM)
Nakaseomyces glabratus [11]
  MIC: 8 µg/mL (≈ 11.3 µM)
Candida albicans [12]
  MIC: 0.25 µg/mL
Candida albicans [13]
  MIC: 0.125 µg/mL
Nakaseomyces glabratus [14]
  MIC: 2 µg/mL (≈ 2.83 µM)
Nakaseomyces glabratus [15]
  MIC: 8 µg/mL
Nakaseomyces glabratus [16]
  MIC: > 8 µg/mL
Nakaseomyces glabratus [17]
  MIC: 4 µg/mL (≈ 5.67 µM)
Nakaseomyces glabratus [18]
  MIC: 0.06 µg/mL (≈ 0.085 µM)
Nakaseomyces glabratus [19]
  MIC: 1 µg/mL (≈ 1.42 µM)
Candida tropicalis [20]
  MIC: 0.03 µg/mL (≈ 0.0425 µM)
Nakaseomyces glabratus [21]
  MIC50: 1 µg/mL (≈ 1.42 µM)
  MIC90: 16 µg/mL (≈ 22.7 µM)
Candida albicans [22]
  MIC: 0.25 µg/mL (≈ 0.354 µM)
Nakaseomyces glabratus [23]
  MIC: 2 µg/mL (≈ 2.83 µM)
Candida albicans [24]
  MIC50: 0.015 µg/mL (≈ 0.0213 µM)
  MIC90: 0.015 µg/mL (≈ 0.0213 µM)
Nakaseomyces glabratus [25]
  MIC: 4 µg/mL (≈ 5.67 µM)
Candida albicans [26]
  MIC50: 0.03 µg/mL (≈ 0.0425 µM)
  MIC90: 0.06 µg/mL (≈ 0.085 µM)
Candida albicans [27]
  MIC: < 0.015 µg/mL
Nakaseomyces glabratus [28]
  MIC: 8 µg/mL
Nakaseomyces glabratus [29]
  MIC: 8 µg/mL
Nakaseomyces glabratus [30]
  MIC: 4 µg/mL (≈ 5.67 µM)
Nakaseomyces glabratus [31]
  MIC: 8 µg/mL
Nakaseomyces glabratus [32]
  MIC: 32 µg/mL
Candida albicans [33]
  MIC: 0.06 µg/mL (≈ 0.085 µM)
Pichia kudriavzevii [34]
  MIC: 1 µg/mL
Nakaseomyces glabratus [35]
  MIC: < 1 µg/mL
Nakaseomyces glabratus [36]
  MIC: 8 µg/mL (≈ 11.3 µM)
Nakaseomyces glabratus [37]
  MIC: 1 µg/mL (≈ 1.42 µM)
Nakaseomyces glabratus [38]
  MIC: 0.5 µg/mL (≈ 0.709 µM)
